These results are taken from patent US12612379B2, “Inhibitors of APOL1 and methods of using same” (Vertex Pharmaceuticals Incorporated, priority 2021, dated 2026).

This assay has as its target T1, APOL1 (tet-inducible transgenic APOL1 T-REx-HEK293 cell lines) (Homo sapiens, UniProt O14791).
T1 sequence (O14791 1-398 S342G/I384M): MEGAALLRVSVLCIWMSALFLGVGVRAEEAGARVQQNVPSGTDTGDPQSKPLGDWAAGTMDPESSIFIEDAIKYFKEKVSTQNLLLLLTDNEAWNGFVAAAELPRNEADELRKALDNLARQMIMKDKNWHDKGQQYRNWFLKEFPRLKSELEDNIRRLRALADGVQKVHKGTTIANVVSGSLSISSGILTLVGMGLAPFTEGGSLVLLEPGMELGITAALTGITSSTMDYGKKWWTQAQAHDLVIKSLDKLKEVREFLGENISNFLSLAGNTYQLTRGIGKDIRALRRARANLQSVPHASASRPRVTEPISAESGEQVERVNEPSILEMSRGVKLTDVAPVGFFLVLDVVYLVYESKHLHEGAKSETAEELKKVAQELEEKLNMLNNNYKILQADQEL
Put plainly: MultiTox-Fluor Multiplex Cytotoxicity Assay for APOL1 inhibitor properties. The class given is cell-based. Conditions: APOL1 induced with 50 ng/mL tet, 24 hours with compound, ratio of dead to live cells, top concentration 10 μM; APOL1 variant (G0/G1/G2) not stated; read-out: IP50 (nM) (i.e., IC50 for cell proliferation). As for the experimental part: The MultiTox-Fluor Multiplex Cytotoxicity Assay is a single-reagent-addition, homogeneous, fluorescence assay that measures the number of live and dead cells simultaneously in culture wells. The assay measures cell viability and cytotoxicity by detecting two distinct protease activities. The live-cell protease activity is restricted to intact viable cells and is measured using a fluorogenic, cell-permeant peptide glycyl-phenylalanylamino fluorocoumarin (GF-AFC) substrate. The substrate enters intact cells, where it is cleaved to generate a fluorescent signal proportional to the number of living cells. […] A second, cell-impermeant, fluorogenic peptide substrate (bis-AAF-R110 Substrate) is used to measure dead-cell protease that has been released from cells that have lost membrane integrity. A ratio of dead to live cells is used to normalize data.
Briefly, the tet-inducible transgenic APOL1 T-REx-HEK293 cell lines were incubated with 50 ng/mL tet to induce APOL1 in the presence of 3-(2-(4-fluorophenyl)-1H-indol-3-yl)-N-((3S,4R)-4-hydroxy-2-oxopyrrolidin-3-yl)propenamide at 10.03, 3.24, 1.13, 0.356, 0.129, 0.042, 0.129, 0.0045, 0.0015, 0.0005 μM in duplicate for 24 hours in a humidified 37° C. incubator. The MultiTox reagent was added to each well and placed back in the incubator for an additional 30 minutes. The plate was read on the EnVision plate reader. A ratio of dead to live cells was used to normalize, and data was imported, analyzed, and fit using Genedata Screener (Basel, Switzerland) software. Data was normalized using percent of control, no tet (100% viability), and 50 ng/mL tet treated (0% viability), and fit using Smart Fit. The reagents, methods, and complete protocol for the MultiTox assay are described below.
Human embryonic kidney (HEK293) cell lines containing a tet-inducible expression system (T-REx™; Invitrogen, Carlsbad, CA) and Adeno-associated virus site 1 pAAVS1-Puro-APOL1 G0 or pAAVS1-Puro-APOL1 G1 or pAAVS1-Puro-APOL1 G2 Clones G0 DC2.13, G1 DC3.25, and G2 DC4.44 were grown in a T-225 flask at ˜90% confluency in cell growth media (DMEM, 10% Tet-free FBS, 2 mM L-glutamine, 100 Units/mL penicillin-streptomycin, 5 μg/mL blasticidin S HCl, 1 μg/mL puromycin dihydrochloride). Cells were washed with DPBS and then trypsinized to dissociate from the flask. Media was used to quench the trypsin, cells were then pelleted at 200 g and resuspended in fresh cell assay media (DMEM, 2% Tet-free FBS, 2 mM L-glutamine, 100 Units/mL penicillin-streptomycin). Cells were counted and diluted to 1.17×10^6 cells/mL. 20 μL of cells (23,400/well) were dispensed in every well of a 384-well Poly-D-Lysine coated plate using the Multidrop dispenser. The plates were then incubated at room temperature for one hour.
Tetracycline is needed to induce APOL1 expression. 1 mg/mL tet stock in water was diluted to 250 ng/mL (5×) in cell assay media. 60 μL of cell assay media (no tet control) was dispensed in columns 1 and 24, and 60 μL of 5×tet in 384-PP-round bottom plate was dispensed in columns 2 to 23 with the Multidrop dispenser.
Assay ready plates from the Global Compound Archive were ordered using template 384_APOL1Cell_DR10n2_50 uM_v3. Compounds were dispensed at 200 nL in DMSO. The final top concentration was 10 μM with a 10 point 3-fold dilution in duplicate in the MultiTox assay.
20 μL was transferred from the 5×tet plate to the ARP and mixed, then 5 μL of 5×tet and the compounds were transferred to the cell plate and mixed using the Bravo. The cell plate was placed in the humidified 37° C. 5% CO2 incubator for 24 hours.
The MultiTox-Fluor Multiplex Cytotoxicity Assay was performed in accordance with the manufacturer's protocol. After cells were incubated with tet and compound for 24 hours, 25 μL of 1×MultiTox reagent was added to each well using the Multidrop dispenser; the plates were placed on a plate shaker (600 rpm) for 2 minutes, then centrifuged briefly and placed back in the 37° C. incubator for 30 minutes. […]
With `C[C@H]1C[C@@](O)(c2ccc(Cl)cc2)C[C@@H](c2cn(C)nn2)N1` [Compound 4], the IC50 is at most 50 nM. As for `CC1CC(O)(c2cccc(Cl)c2)CC(c2cnn(CCS(C)(=O)=O)c2)N1` (centres unmarked) [Compound 2], the figure is 50 to 500 nM; as for `C[C@H]1C[C@@](O)(c2ccc(SC3CC3)cc2)C[C@@H](c2cn(C)nn2)N1` [Compound 49], 50 to 500 nM; as for `CC(C)c1ccc([C@@]2(O)C[C@@H](c3cn(C)nn3)N[C@@H](C)C2)cc1` [Compound 8], at most 50 nM. As for `C[C@H]1C[C@@](O)(c2ccnc(C(F)(F)F)c2)C[C@@H](c2cn(C)nn2)N1` [Compound 35], the figure is at least 500 nM. As for `C[C@H]1C[C@@](O)(c2ccc(C(F)(F)F)c(C(F)(F)F)c2)C[C@@H](c2cn(C)nn2)N1` [Compound 51], the figure is at most 50 nM; as for `C[C@H]1C[C@@](O)(Cc2cccc(C(F)(F)F)c2)C[C@@H](c2cn(C)nn2)N1` [Compound 61, (2S,4S,6S)-2-methyl-6-(1-methyltriazol-4-yl)-4-[[3-(trifluoromethyl)phenyl]methyl]piperidin-4-ol], at least 500 nM; as for `C[C@H]1C[C@@](O)(c2ccc(C(F)(F)F)cc2)C[C@@H](c2cn(C)nn2)N1` [Compound 16], at most 50 nM. `C[C@H]1C[C@@](O)(CS(=O)(=O)c2ccc(Br)cc2)C[C@@H](c2cn(C)nn2)N1` [Compound 45]: the IC50 is at least 500 nM. As to `C[C@H]1C[C@@](O)(c2cccc(C(F)(F)F)c2)C[C@@H](c2cn(C)nn2)N1` [Compound 48], the IC50 is 50 to 500 nM.

With `C[C@H]1C[C@@](O)(C2CCCCC2)C[C@@H](c2cn(C)nn2)N1` [Compound 60, (2S,4S,6S)-4-cyclohexyl-2-methyl-6-(1-methyltriazol-4-yl)piperidin-4-ol], the IC50 was at least 500 nM. With `C[C@H]1C[C@@](O)(c2ccc3c(c2)OCC3)C[C@@H](c2cn(C)nn2)N1` [Compound 53], the IC50 is at least 500 nM. As for `COc1cc(Cl)ccc1[C@@]1(O)C[C@@H](c2cn(C)nn2)N[C@@H](C)C1` [Compound 20], the figure is at least 500 nM; as for `Cc1ccc([C@@]2(O)C[C@@H](c3cn(C)nn3)N[C@@H](C)C2)cc1F` [Compound 11], 50 to 500 nM; as for `C[C@H]1C[C@@](O)(c2ccc3c(c2)C2(CCO3)CC2)C[C@@H](c2cn(C)nn2)N1` [Compound 32], 50 to 500 nM. As for `C[C@H]1C[C@@](O)(c2ccccc2)C[C@@H](c2cn(C)nn2)N1` [Compound 7], the figure is at least 500 nM; as for `C[C@H]1C[C@@](C#N)(c2ccc(C(F)(F)F)cc2)C[C@@H](c2cn(C)nn2)N1` [Compound 46, (2S,4S,6S)-2-methyl-6-(1-methyltriazol-4-yl)-4-[4-(trifluoromethyl)phenyl]piperidine-4-carbonitrile], 50 to 500 nM. Turning to `C[C@H]1C[C@@](O)(c2ccc(Cl)cc2F)C[C@@H](c2cn(C)nn2)N1` [Compound 22], the IC50 is at most 50 nM. As for `C[C@H]1C[C@@](O)(c2ccc(F)cc2)C[C@@H](c2cn(C)nn2)N1` [Compound 15], the figure is at least 500 nM; as for `C[C@H]1C[C@@](O)(c2ccc(Br)cc2)C[C@@H](c2cn(C)nn2)N1` [Compound 27], at most 50 nM. Regarding `C[C@H]1C[C@@](O)(c2ccc(C(F)(F)F)c(Cl)c2)C[C@@H](c2cn(C)nn2)N1` [Compound 36], the IC50 is at most 50 nM. Then `Cc1cc([C@@]2(O)C[C@@H](c3cn(C)nn3)N[C@@H](C)C2)ccc1C(F)(F)F` [Compound 34], with at most 50 nM; and `C[C@H]1C[C@@](O)(c2ccc3nnn(C)c3c2)C[C@@H](c2cn(C)nn2)N1` [Compound 57], with at least 500 nM; and `C[C@H]1C[C@@](O)(c2ccc(C(F)(F)F)nc2)C[C@@H](c2cn(C)nn2)N1` [Compound 37], with 50 to 500 nM.

For `Cc1nn(C)c2ccc([C@@]3(O)C[C@@H](c4cn(C)nn4)N[C@@H](C)C3)cc12` [Compound 59], the IC50 lay in the range of 50 to 500 nM.

Regarding `COc1cc([C@@]2(O)C[C@@H](c3cn(C)nn3)N[C@@H](C)C2)ccc1Cl` [Compound 19], the IC50 was at most 50 nM. For `C[C@H]1C[C@@](O)(c2ccc(Cl)c(C(=O)N(C)C)c2)C[C@@H](c2cn(C)nn2)N1` [Compound 24], the IC50 was in the range of 50 to 500 nM.

For `C[C@H]1C[C@@](O)(c2ccc(Cl)c(F)c2)C[C@@H](c2cn(C)nn2)N1` [Compound 13], the IC50 is at most 50 nM.

For the compound `Cc1ccc([C@@]2(O)C[C@@H](c3cn(C)nn3)N[C@@H](C)C2)cc1` [Compound 5], the IC50 fell in the range of 50 to 500 nM. As for `C[C@H]1C[C@@](C(N)=O)(c2ccc(Cl)cn2)C[C@@H](c2cn(C)nn2)N1` [Compound 64], the figure is at least 500 nM; as for `C[C@H]1C[C@@](O)(c2ccc(F)c(Cl)c2)C[C@@H](c2cn(C)nn2)N1` [Compound 9], 50 to 500 nM.

Turning to `Cc1cc([C@@]2(O)C[C@@H](c3cn(C)nn3)N[C@@H](C)C2)ccc1F` [Compound 12], the IC50 was 50 to 500 nM. Regarding `C[C@H]1C[C@@](O)(c2ccc(C(F)(F)F)c(O)c2)C[C@@H](c2cn(C)nn2)N1` [Compound 43], the IC50 was at most 50 nM. As for `C[C@H]1C[C@@](O)(c2ccc3cn[nH]c3c2)C[C@@H](c2cn(C)nn2)N1` [Compound 52], the figure is at most 50 nM.

As for `C[C@H]1C[C@@](O)(c2ccc3c(c2)CC(C)(C)O3)C[C@@H](c2cn(C)nn2)N1` [Compound 31], the IC50 is at least 500 nM. As for `C[C@H]1C[C@@](O)(c2csc(C(F)(F)F)c2)C[C@@H](c2cn(C)nn2)N1` [Compound 14], the figure is 50 to 500 nM. Then `COc1cc([C@@]2(O)C[C@@H](c3cn(C)nn3)N[C@@H](C)C2)ccc1C(F)(F)F` [Compound 28], with at most 50 nM; and `Cc1cccc([C@@]2(O)C[C@@H](c3cn(C)nn3)N[C@@H](C)C2)c1` [Compound 6], with 50 to 500 nM. As for `Cc1cc(Cl)ccc1[C@@]1(O)C[C@@H](c2cn(C)nn2)N[C@@H](C)C1` [Compound 21], the figure is 50 to 500 nM. Take `C[C@H]1C[C@@](O)(c2ccc(C(F)(F)F)cc2O)C[C@@H](c2cn(C)nn2)N1` [Compound 44]: the IC50 lay in the range of 50 to 500 nM. Then `C[C@H]1C[C@@](O)(c2ccc(C#N)cc2)C[C@@H](c2cn(C)nn2)N1` [Compound 30], with 50 to 500 nM.

Consider `C[C@H]1C[C@@](O)(c2ccc3cn(C)nc3c2)C[C@@H](c2cn(C)nn2)N1` [Compound 54], for which the IC50 is at least 500 nM. Then `C[C@H]1C[C@@](O)(c2ccc(Cl)c(OC(F)(F)F)c2)C[C@@H](c2cn(C)nn2)N1` [Compound 23], with at most 50 nM; and `C[C@H]1C[C@@](O)(c2ccc(C3CC3)cc2)C[C@@H](c2cn(C)nn2)N1` [Compound 29], with at most 50 nM.
